In patent publication US20030040114A1, “SMALL MOLECULE MODULATION OF RIBOZYMES” (Warner-Lambert Company,, priority 1996, published 2003):
Starred links: 1 amine or outer side, 2 acyl side, 3 side chain; linkers in the order of their positions; H or OH if unused. Positions of bridges follow the written chain, without caps; N, C: chain ends. Non-standard residues stand in square brackets, D forms with d. Residues, ends and D or L forms follow the SMILES beside them. *: point of attachment. X1 = NC1=N[C@@H]([C@H](N[*:1])C(=O)[*:2])C[C@H](O)N1; ΔAla(Z-3-ureido) = NC(=O)N/C=C(\N)C(=O)O; β3hOrn = NCCC[C@H](N)CC(=O)*; Dap = NC[C@H](N)C(=O)O

Experiments:
[1] = tested on: self-splicing Pneumocystis carinii Group I intron RNA; test: Multiple-loading gel electrophoresis assay for self-splicing Group I intron; assay type: biochemical; conditions: single concentration 20 μM; four repeats; FIG. 6
Experimental: As another example of a separation method useful in the present invention, a high-throughput gel electrophoresis assay with multiple loading capability is used in studies of self-splicing Group I introns. To be specific, the reaction sample, prepared similarly as described in the filtration assay, was loaded on a denaturing polyacrylamide gel (7 M urea, 6% polyacrylamide) and electrophoresed for 1 hour at room temperature. Due to their lengths, the ^32P-labeled products of the self-splicing introns can be readily distinguished from the ^32P-GTP on a polyacrylamide gel. On a single polyacrylamide gel, usually three or four repetitive loadings of different samples into the same wells at discrete times present no interference between samples. […] After a total of 3 hours of electrophoresis, the desired products are well-resolved in all samples regardless of the time of loading.
Each sample contains the same self-splicing reaction solution as described in the previous section (32 μL of precursor RNA in self-splicing buffer, 2 μL of DMSO or compound, and 6 μL solution of α-^32P-GTP). As described previously, the products of the self-splicing reactions are 5′-end labeled intron-containing 439-nt RNA (from the first step) and 390-nt RNA (from the second step). These large RNA fragments can be readily separated from the starting material, ^32P-GTP. After splicing reactions, a total of 20 samples were loaded on a polyacrylamide gel three times (first loading at time 0, then two more loadings at 1, and 2 hours after the first loading, respectively). […] In this gel electrophoresis assay, for the purpose of quantitation of reaction yields, appropriate ^32P-labeled RNA fragments can be introduced to each sample as an internal standard immediately prior to loading. The gels containing self-splicing products and internal standards separated according to their different mobilities can be dried and quantitated by a phosphor imager (Phosphoimager, Molecular Dynamics). […]

[2] = tested on: self-splicing Pneumocystis carinii Group I intron RNA; test: Filtration assay for self-splicing Group I intron (96-well, 32P-GTP incorporation, TCA precipitation); assay type: biochemical; conditions: single concentration 20 μM; four repeats; FIG. 6
Experimental: A high-throughput screening assay for self-splicing Group I introns using 96-well format filter plates is disclosed. Nonradioactive, intron-containing precursor RNA is incubated with α-^32P-labeled GTP in the absence or presence of small molecules. During the first step of Group I intron splicing, ^32P-GTP is covalently ligated to the 5′ terminus of the intron. Subsequently, the intron-containing products of both the first (439-nt RNA) and the second (390-nt RNA) steps are radioactively labeled at the 5′-end with ^32P isotopes. Free ^32P-GTP and the longer ^32P-labeled (acid-precipitable) RNA products can be readily separated through trichloroacetic acid precipitation and subsequent filtration through nitrocellulose membrane. The efficiency of inhibition can be followed by measuring the amount of the radioactivity retained on the filter membrane. In the control experiment, the spliced products containing 5′-^32P GMP will retain on the membrane. If the first step (5′-cleavage) is inhibited by a small molecule, incorporation of ^32P-GTP to the precursor RNA will be inhibited and, therefore, a decreased amount of radioactivity will be found on the membrane.
In each well of a 96-well U-bottom microtiter plate, 32 μL of precursor RNA (in self-splicing buffer 50 mM Tris-HCl, pH 7.5, 10 mM (NH4)2SO4, 10 mM MgCl2, 5 mM spermidine, and 5% glycerol) was added with 2 μL of a small organic compound in dimethylsulfoxide (DMSO) and the mixture incubated at room temperature for 5 minutes. […] The filter was allowed to dry and the retained radioactivities were determined using scintillation counting (Wallac Microbeta Counter). […]
Column 1 represents the results of eight repeats of the self-splicing reactions in the absence of any inhibitors while Column 12 represents the data of eight repeats of solution containing ^32P-GTP only. […] The results of a total of 18 plates (a total of 1,440 samples) have been analyzed and the statistical distribution of the inhibitory activities is shown in FIG. 4. […]

Row | SMILES | Self-splicing inhibitory effect, gel electrophoresis assay [1] | Self-splicing inhibitory effect, filtration assay [2]
1 | N=C(N)c1ccc(OCCCCCOc2ccc(C(=N)N)cc2)cc1 [pentamidine] | either low or modest activity | either low or modest activity
2 | NCCC[C@H](N)CC(=O)N[C@H]1CNC(=O)[C@H]([C@H]2C[C@H](O)NC(N)=N2)NC(=O)/C(=C/NC(N)=O)NC(=O)[C@H](CO)NC(=O)[C@H](CO)NC1=O [viomycin, Viomycin] (β3hOrn-[Dap]SS[ΔAla(Z-3-ureido)][X1]; lactam 1-C) | either low or modest activity | either low or modest activity
3 | [H]/N=C(/N)N[C@H]1[C@H](O)[C@@H](O)[C@H](O[C@@H]2O[C@@H](C)[C@](O)(C=O)[C@H]2O[C@@H]2O[C@@H](CO)[C@H](O)[C@@H](O)[C@@H]2NC)[C@@H](N/C(N)=N\[H])[C@@H]1O [streptomycin] | either low or modest activity | either low or modest activity
